From paper PMC9964323, “New Titanocene (IV) Dicarboxylates with Potential Cytotoxicity: Synthesis, Structure, Stability and Electrochemistry” (International Journal of Molecular Sciences, 2023)
“Also recorded” adds a separate entry of the source.

Legend:
[1] = Cyclic voltammetry (reduction potentials); type: physicochemical; settings: for Ered, first reduction potential: first value of cell; for Ered, first reduction potential / Ered, second reduction potential: DMF, 0.05 M Bu4NClO4, glass-carbon electrode, vs Ag/AgCl/KCl (sat.), 100 mV/s, C = 1 × 10^−1 mol L^−1; for Ered, second reduction potential: second value of cell
Protocol: It was shown that, as expected, the reduction potentials of Ti (IV) for all compounds depend on the structure of the carboxylate-containing ligand, in particular, the presence of donor and acceptor substituents in the ligand benzene ring (Table 3).
Cyclic Voltammetry experiments were conducted using an IPC Pro M potentiostat (Russia) with cyclic voltammetry (CV) and rotating disk electrode (RDE) techniques. Glass-carbon (d = 2 mm) disks were used as the working electrodes, 0.05 M Bu4NClO4 solution in DMF served as the supporting electrolyte, and Ag/AgCl/KCl (sat.) was used as the reference electrode. The potential scan rates were 100 mV/s. Samples were dissolved in the predeaerated solvent.

[2] = Stability in aqueous media (hydrolysis followed by optical absorption at 330 nm); type: physicochemical; settings: 0.4 mM, 10% DMSO 90% water
Text: The decrease in the concentration of the coordination compound was estimated from the decrease in the optical absorption at a wavelength of 330 nm. We considered it inappropriate to use the optical absorption maximum in the range of 230–300 nm for similar purposes because the absorption of the initial coordination compound, free carboxylate-containing ligands, and cyclopentadiene may overlap in this region.
Stability in aqueous media was studied by recording the full optical absorption spectra of solutions of the studied titanocene derivatives with an initial concentration of 0.4 mM in the solvent system (10% DMSO 90% water) at different time intervals. The change in the concentration of the studied compound was evaluated by the decrease in optical absorption at a wavelength of 330 nm. Full absorption spectra of studied compounds are presented as Figure S7 in the Supplementary Materials.

[3] = test system: Ehrlich ascites carcinoma; design: method as in PMID 111586; settings: cited from earlier work
[4] = design: method as in PMID 9704729, PMID 9829732; settings: phase I clinical trials; cited from earlier work
[5] = test system: adenocarcinoma of the lung, breast, and gastrointestinal tract; design: method as in PMID 111586, PMID 7988618; settings: cited from earlier work
[6] = test system: platinum-resistant cell lines; design: method as in PMID 8499130; settings: cited from earlier work
[7] = test system: metastatic breast and colon tumors; settings: phase II clinical trials, dose of 240 mg/m^2; cited from earlier work

Compound | Ered, first reduction potential [1] | Ered, second reduction potential [1] | hydrolysis rate / stability in aqueous media [2] | also measured
O=C([O-])c1ccccc1.O=C([O-])c1ccccc1.[Ti+4].c1cc[cH-]c1.c1cc[cH-]c1 [2a, bis(η^5-cyclopentadienyl)bis(benzoato)titanium(IV)] | −0.85 V | −2.17 V |  | 
[N-]=[N+]=Nc1ccc(C(=O)[O-])cc1.[N-]=[N+]=Nc1ccc(C(=O)[O-])cc1.[Ti+4].c1cc[cH-]c1.c1cc[cH-]c1 [2c, bis(η^5-cyclopentadienyl)bis(4-azidobenzoato)titanium(IV)] | −0.78 V | −2.01 V |  | 
O=C([O-])c1cccc(F)c1.O=C([O-])c1cccc(F)c1.[Ti+4].c1cc[cH-]c1.c1cc[cH-]c1 [2d, bis(η^5-cyclopentadienyl)bis(3-fluorobenzoato)titanium(IV)] | −0.79 V | −2.05 V |  | 
O=C([O-])c1c(F)c(F)c(F)c(F)c1F.O=C([O-])c1c(F)c(F)c(F)c(F)c1F.[Ti+4].c1cc[cH-]c1.c1cc[cH-]c1 [2e, bis(η^5-cyclopentadienyl)bis(pentafluorobenzoato)titanium(IV)] | −0.57 V | −1.81 V | hydrolyzed more slowly than compound 2b; also recorded: slower | half-life time in water [2]: approximately 3 h
CC(=O)Oc1ccccc1C(=O)[O-].CC(=O)Oc1ccccc1C(=O)[O-].[Ti+4].c1cc[cH-]c1.c1cc[cH-]c1 [2f, bis(η^5-cyclopentadienyl)bis(2-acetoxybenzoato)titanium(IV)] | −0.81 V | −2.11 V |  | 
[Cl-].[Cl-].[Ti+4].c1cc[cH-]c1.c1cc[cH-]c1 [Cp2TiCl2, Titanocene dichloride] | −0.62 V | −1.85 V | lower stability in aqueous media compared to the carboxylate-containing analogues | cure ([3]; Ehrlich ascites carcinoma inoculated into mice): 80%; side effects associated with drug toxicity ([3]; Ehrlich ascites carcinoma inoculated into xenograft mice): no noticeable side effects; dose-dependent side effects [4]: mild nephrotoxicity, fatigue, and bilierubinimia; cytotoxicity [5]: pronounced cytotoxicity; cytotoxicity [6]: pronounced cytotoxicity; therapeutic effect [7]: did not show a therapeutic effect
bis(η^5-cyclopentadienyl)bis(4-benzoxybenzoato)titanium(IV) [2b] | −0.88 V | −2.21 V |  | half-life time in water [2]: approximately 3 h
bis(η^5-cyclopentadienyl)salicylatotitanium(IV) [2g] | −0.90 V |  | Hydrolysis proceeds slowly | Reversibility of reduction ([1]; CV in DMF): reversibly reduced and oxidized and rev
